In patent publication US5302700A, “Radiohalogenation conjugate technology” (Duke University, priority 1988, dated 1994):

Tests used:
[1] = aqueous solution; background; cited from earlier work
[2] = Paired-label study: thyroid and stomach uptake of [125I]INA and [131I]iodide in mice; assay type: in vivo
Text: When radioiodine is released from proteins following in vivo administration, loss of label occurs (dehalogenation). Since free iodide is taken up avidly by the thyroid and, at early time points, localizes in the stomach, uptake of radioiodine by these tissues is often used as an indicator of dehalogenation in vivo.
(§1) The method of choice for comparing the pharmacokinetics of two radioiodinated products (or two samples of the same compound, each sample radioiodinated using a different method) is to administer both to the same group of animals, labeling the first with ^125 I and the second with ^131 I. By performing "paired-label" experiments, one can correct for systematic errors such as incomplete thyroid sampling (less than 10 mg in a mouse) which could make […] comparisons difficult.
(§2) In the first paired-label study, groups of mice were injected with both [^131 ]iodide and 5-^125 I]iodonicotinic acid (hereinafter INA), the labeled substrate which is attached to proteins in the SPC procedure.

[3] = Whole body clearance of INA and iodide (FIG. 1); assay type: in vivo, mice; settings: vs iodide
Protocol: as §1, §2
One approach for decreasing the retention of a nuclide in normal tissues following the administration of labeled antibodies is to couple the isotope in a chemical form which will be excreted rapidly after antibody catabolism. Degradation of antibodies labeled using the SPC method should result in the production of 5-iodonicotinic acid (INA).

[4] = background; cited from earlier work

Row | Compound | hydrolysis of the active ester [1] | dehalogenation in vivo of INA template [2] | Stomach uptake ([2]; 1 hr after injection) | Thyroid uptake ([2]; 1 hr after injection) | Stomach uptake ([2]; 2 hr after injection) | Thyroid uptake ([2]; 2 hr after injection) | Stomach uptake ([2]; 4 hr after injection) | Thyroid uptake ([2]; 4 hr after injection) | Stomach uptake ([2]; 6 hr after injection) | Thyroid uptake ([2]; 6 hr after injection) | Stomach uptake ([2]; 24 hr after injection) | Thyroid uptake ([2]; 24 hr after injection) | thyroid uptake of 125I (INA), times lower than 131I (iodide) ([2]; thyroid, 125I vs 131I) | percentages of the injected dose localizing in thyroid and, at early time points, stomach, compared with iodide ([2]; vs iodide) | whole body clearance compared with iodide [3] | in vivo loss of radioiodine from the protein [4]
1 | O=C(CCc1ccc(O)c([125I])c1)ON1C(=O)CCC1=O [Bolton-Hunter] | rapid hydrolysis of the active ester in aqueous solution | – | – | – | – | – | – | – | – | – | – | – | – | – | – | –
2 | O=C(O)c1cncc([125I])c1 [INA, 5-[^125 I]iodonicotinic acid] | – | relatively inert to dehalogenation in vivo | 0.69 ± 0.40 percentages of the injected do | 0.13 ± 0.13 percentages of the injected do | 0.53 ± 0.41 percentages of the injected do | 0.27 ± 0.09 percentages of the injected do | 0.18 ± 0.03 percentages of the injected do | 0.44 ± 0.21 percentages of the injected do | 0.24 ± 0.10 percentages of the injected do | 1.04 ± 0.24 percentages of the injected do | 0.14 ± 0.01 percentages of the injected do | 0.67 ± 0.19 percentages of the injected do | 23-56 times lower | significantly lower than those observed with iodide | considerably faster than iodide | –
3 | I [Iodide, [^131 I]iodide, reference compound] | – | – | 16.56 ± 8.10 percentages of the injected do | 7.23 ± 1.27 percentages of the injected do | 12.61 ± 7.33 percentages of the injected do | 7.23 ± 1.39 percentages of the injected do | 3.53 ± 0.74 percentages of the injected do | 12.21 ± 3.27 percentages of the injected do | 4.16 ± 1.82 percentages of the injected do | 23.64 ± 4.95 percentages of the injected do | 0.06 ± 0.02 percentages of the injected do | 16.95 ± 4.98 percentages of the injected do | – | – | – | –
4 | COC(=N)c1cc(I)c(O)c(I)c1 [Woods] | – | – | – | – | – | – | – | – | – | – | – | – | – | – | – | in vivo loss of radioiodine from the protein
